The text below walks through data of patent US9790227B2, “2-methylsulphanyl-6-nitro-7-oxo-1, 2, 4-triazolo [5, 1-C] [1, 2, 4] triazinide L-arginine dihydrate active toward west nile virus” (LIMITED LIABILITY COMPANY “URAL CENTER OF BIOPHARMACEUTICAL …, priority 2013, dated 2017).

Structures are written as SMILES.

The subject of one series is West Nile virus. Nature of the series: Effectiveness in cell culture GMK-AH (1D) against West Nile virus. In kind it is cell-based. As for the experimental part:
Monolayer of the cell culture GMK-AH (1D) was infected with West Nile virus in a dose of 0.05 PFU/cell. Virus was adsorbed at 37° C., 5% CO2, for 60 minutes. At the end of the incubation, the monolayer was washed three times with maintenance medium containing 100 u/ml penicillin and streptomycin to remove non-adsorbed virus, and test compounds were added at a concentration of ½ MIC. The substance was dissolved in maintenance medium to the desired concentration. For each compound, not less than 10 tubes with a monolayer of cells were used. Incubation was performed at 37° C., 5% CO2 for 48 hours. Next, the cryodestruction of cells was performed and the samples were combined. The infectious titer in the combined samples was determined by titration by forming negative colonies under the agar coating in the cell culture GMK-AH (1D).

In another series the test system is cell culture GMK-AH (1D). Nature of the series: Evaluation of cytotoxicity in cell culture GMK-AH (1D). In kind it is cell-based. As for the experimental part:
Evaluation of the cytotoxicity of the test compound using a constant cell culture GMK-AH (1D).
To form a continuous monolayer, 1 ml of cell suspension with a density of 200 thousand/ml was added into each tubes and incubate at a temperature (37.0±0.5)° C., 5% CO2.
Then the growth medium was removed and fresh medium containing various concentrations of test drugs (from 1000 to 6.25 µg/ml) was added. The tubes were then incubated for 5 days at a temperature (37.0+0.5)° C., 5% CO2.
Using a light microscope, the state of the monolayer cells was observed: partial or complete destruction of the monolayer cells, damage to individual cells, cell syncytium formation. Control samples were tubes with a monolayer, which included maintenance medium without a drug.

The mark [1] stands for this setting: 250.0 μg/ml (½ MIC), GMK-AH (1D), 0.05 PFU/cell, 48 hours.
Setting [2] is: cytotoxicity, GMK-AH (1D), 5 days.

With `CSc1nc2[nH]nc([N+](=O)[O-])c(=O)n2n1` [Claimed compound, 2-methylsulfanyl-6-nitro-7-oxo-1,2,4-triazolo[5,1-c] [1,2,4]triazinid L-arginine dihydrate], the “Level of the virus accumulation” value in the series with West Nile virus (setting [1]) came out at 4.2 lg PFU/ml. Also, in the series with West Nile virus (setting [1]), the “Reduction of the virus accumulation” value is listed as 2.3 lg PFU/ml. The same compound came in with an inhibiting factor in the series with West Nile virus (Table 2, GMK-AH (1D)) of 99.5%. The “inhibits the reproduction of West Nile virus” value in the series with West Nile virus (Table 2, GMK-AH (1D)) is listed as 2.31 g. Also, the “antiviral activity in vitro against West Nile virus” value in the series with West Nile virus (concluding statement) is given as “significant antiviral activity”. Besides, the “The frequency of the cytopathic effect of the claimed compound” value in the series on cell culture GMK-AH (1D) (concentration 7.8 mg/mL, GMK-AH (1D), 5 days) was 0/4; in the series with cell culture GMK-AH (1D) (concentration 15.5 mg/mL, GMK-AH (1D), 5 days), 0/4; with cell culture GMK-AH (1D) (concentration 31.3 mg/mL, GMK-AH (1D), 5 days), 0/4; with cell culture GMK-AH (1D) (concentration 62.5 mg/mL, GMK-AH (1D), 5 days), 0/4; in the series on cell culture GMK-AH (1D) (concentration 250.0 mg/mL, GMK-AH (1D), 5 days), 0/4; with cell culture GMK-AH (1D) (concentration 500.0 mg/mL, GMK-AH (1D), 5 days), 0/4. In addition, the “The frequency of the cytopathic effect of the claimed compound” value in the series on cell culture GMK-AH (1D) (concentration 1000.0 mg/mL, GMK-AH (1D), 5 days) is 2/4; with cell culture GMK-AH (1D) (concentration 125,0 mg/mL, GMK-AH (1D), 5 days) it was 0/4. Further, in the series on cell culture GMK-AH (1D) (concentration of 500 μg/ml, GMK-AH (1D)), the “visible changes in the cell culture” value is reported as “did not cause any visible changes”. In the series with cell culture GMK-AH (1D) (concluding statement), the “toxicity in the concentrations used” value was “nontoxic”. For the same compound, in the series on cell culture GMK-AH (1D) (cytotoxicity, GMK-AH (1D)), the “½ MIC” value was determined as 250.0 µg/mL. The same compound registered an MIC in the series on cell culture GMK-AH (1D) (setting [2]) of 500.0 µg/mL. For the same compound, the cytotoxic concentration in the series on cell culture GMK-AH (1D) (setting [2]) came to 1000.0 µg/mL.
